Measured values taken from PubChem BioAssay AID1963868 (Molecular Pharmacology Branch, DTP, NCI, 2024).
pIC50: −log10 of the molar value.

Tested on: KRAS PDC tumor spheroids (HUVEC+MSC), viability
Assay: Anticancer human tumor 254851-301-R-J1-PDC patient-derived colon carcinoma cell line growth inhibition [KRAS2]
Conditions: for pIC50: curve of first compound; for viability, T/C: stronger effect = lower value
From the text: Multicellular complex tumor spheroid response to RAS pathway inhibitors in combination with a targeted agents in patient-derived cell lines with oncogenic KRAS variants from multiple cancer types
A high-throughput screen of multi-cell type tumor spheroids was designed to identify active combinations of targeted small molecules and KRAS pathway inhibitors. Complex spheroids include a stromal component modeled by human endothelial cells (HUVEC) and fibroblasts modeled by human mesenchymal stem cells (MSCs). The concentration ranges selected for each drug and investigational agent were based upon clinically achievable concentrations if the clinical Cmax of the agent was known.
Compounds. The drugs and investigational agents: BI-3406 (NSC825286), BAY-293 (NSC824723), batoprotafib (TNO155; NSC825523), sotorasib (AMG 510; NSC818433), MRTX1257 (NSC819558), elimusertib (BAY 1895344; NSC800525), molibresib (GSK525762; NSC774829), temuterkib (LY3214996; NSC803410), venetoclax (NSC766270), alisertib (NSC759677), olaparib (NSC753686), talazoparib (NSC767125), erdafitinib (NSC781556), ipatasertib (NSC767898), cabozantinib (NSC761068), nintedanib (NSC756659), abemaciclib (NSC768073), docetaxel (NSC628503), trametinib (NSC758246), and sapanisertib (NSC764658) were obtained from the National Cancer Institute (NCI) Developmental Therapeutics Program Chemical Repository. The FDA-approved anticancer drug set is available from the Developmental Therapeutics Program. […] The stock solutions were prepared in dimethyl sulfoxide (DMSO, Sigma-Aldrich, St. Louis, MO, cat. D2650) at 800-fold the tested concentration and stored at -70 degrees C prior to their use. All drugs and investigational agents were tested over a range starting from a high concentration at or near the clinical Cmax and decreasing in half-log increments. If the clinical Cmax for an agent had not been determined, the highest concentration tested was 10 microM.
Cell Culture. All cells were maintained in an incubator at 37 degrees C and 5% CO2 with 95% humidity. The PDC lines were cultured according to standard operating procedures established by the NCI PDMR (https://pdmr.cancer.gov/sops/default.htm). Briefly, all PDCs were thawed and cultured in Matrigel-coated flasks prepared with a working solution of 1X Ham's F-12 nutrient mix, without supplementation (Invitrogen, Waltham, MA, cat. 11765054), 100 U/mL penicillin-streptomycin (Invitrogen, cat. 15140122), and 2.5% Matrigel (Corning Inc., Corning, NY, cat. 354248) for the first three passages. All PDCs were cultured in complete DMEM/F-12 media containing advanced DMEM/F-12 (Invitrogen, cat. 12634028), 4.9% defined fetal bovine serum, heat inactivated (HyClone Laboratories Inc., Logan, UT, cat. SH30070.03HI), 389 ng/mL hydrocortisone (Sigma-Aldrich, cat. H4001), 9.7 ng/mL human EGF recombinant protein (Invitrogen, cat. PHG0313), 23.4 microg/mL adenine (Sigma-Aldrich, cat. A2786), 97.3 U/mL penicillin-streptomycin (Invitrogen, cat. 15140122), 1.9 mM L-glutamine (Invitrogen, cat. 25030081), and 9.7 microM Y-27632 dihydrochloride (Tocris Bioscience, Bristol, United Kingdom, cat. 1254). The PDCs were cultured in complete DMEM/F12 media without 9.7 microM Y-27632 dihydrochloride for at least two passages prior to the screen. The established cell line HOP-62 was cultured in RPMI 1640 medium, HEPES (Invitrogen, cat. 22400105) with 10% defined fetal bovine serum (HyClone Laboratories Inc., cat. SH30070.03) and 2 mM L-glutamine (Invitrogen, cat. 25030081). The pooled donor HUVEC were cultured in endothelial cell growth medium 2 (PromoCell, Heidelberg, Germany, cat. C-22011) and the hMSC were cultured in mesenchymal stem cell growth medium 2 (PromoCell, cat. C-28009). For all experiments, HUVEC and hMSC were used at passages </=5, while the malignant cell lines were used at passages </=15. […]

[1] = second compound 0.1 µM, first compound 0.0316 µM
[2] = second compound 0.1 µM, first compound 0.1 µM
[3] = second compound 0.1 µM, first compound 0.316 µM
[4] = second compound 0.1 µM, first compound 1 µM
[5] = second compound 0.1 µM, first compound 3.16 µM
[6] = second compound 0.1 µM, first compound 10 µM
[7] = second compound 0.316 µM, first compound 0.0316 µM
[8] = second compound 0.316 µM, first compound 0.1 µM
[9] = second compound 0.316 µM, first compound 0.316 µM
[10] = second compound 0.316 µM, first compound 1 µM
[11] = second compound 0.316 µM, first compound 3.16 µM
[12] = second compound 0.316 µM, first compound 10 µM
[13] = second compound 1 µM, first compound 0.0316 µM
[14] = second compound 1 µM, first compound 0.1 µM
[15] = second compound 1 µM, first compound 0.316 µM
[16] = second compound 1 µM, first compound 1 µM
[17] = second compound 1 µM, first compound 3.16 µM
[18] = second compound 1 µM, first compound 10 µM
[19] = second compound 3.16 µM, first compound 0.0316 µM
[20] = second compound 3.16 µM, first compound 0.1 µM
[21] = second compound 3.16 µM, first compound 0.316 µM
[22] = second compound 3.16 µM, first compound 1 µM
[23] = second compound 3.16 µM, first compound 3.16 µM
[24] = second compound 3.16 µM, first compound 10 µM
[25] = second compound 10 µM, first compound 0.0316 µM
[26] = second compound 10 µM, first compound 0.1 µM
[27] = second compound 10 µM, first compound 0.316 µM
[28] = second compound 10 µM, first compound 1 µM
[29] = second compound 10 µM, first compound 3.16 µM
[30] = second compound 10 µM, first compound 10 µM
[31] = second compound 0.1 µM, first compound 0.000316 µM
[32] = second compound 0.1 µM, first compound 0.001 µM
[33] = second compound 0.1 µM, first compound 0.00316 µM
[34] = second compound 0.1 µM, first compound 0.01 µM
[35] = second compound 0.316 µM, first compound 0.000316 µM
[36] = second compound 0.316 µM, first compound 0.001 µM
[37] = second compound 0.316 µM, first compound 0.00316 µM
[38] = second compound 0.316 µM, first compound 0.01 µM
[39] = second compound 1 µM, first compound 0.000316 µM
[40] = second compound 1 µM, first compound 0.001 µM
[41] = second compound 1 µM, first compound 0.00316 µM
[42] = second compound 1 µM, first compound 0.01 µM
[43] = second compound 3.16 µM, first compound 0.000316 µM
[44] = second compound 3.16 µM, first compound 0.001 µM
[45] = second compound 3.16 µM, first compound 0.00316 µM
[46] = second compound 3.16 µM, first compound 0.01 µM
[47] = second compound 10 µM, first compound 0.000316 µM
[48] = second compound 10 µM, first compound 0.001 µM
[49] = second compound 10 µM, first compound 0.00316 µM
[50] = second compound 10 µM, first compound 0.01 µM
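Further: spheroids exposed to compounds for seven days before readout.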
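Wherever viability, T/C is given: 100% = DMSO vehicle control luminescence of the spheroids.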

Structure (SMILES) | pIC50 (second compound 0.1 µM) | pIC50 (second compound 0.316 µM) | pIC50 (second compound 1 µM) | pIC50 (second compound 3.16 µM) | pIC50 (second compound 10 µM) | viability, T/C [1] [%] | viability, T/C [2] [%] | viability, T/C [3] [%] | viability, T/C [4] [%] | viability, T/C [5] [%] | viability, T/C [6] [%] | viability, T/C [7] [%] | viability, T/C [8] [%] | viability, T/C [9] [%] | viability, T/C [13] [%] | viability, T/C [14] [%] | viability, T/C [19] [%] | viability, T/C [20] [%] | viability, T/C [25] [%] | viability, T/C [26] [%] | further results
COC(=O)c1ccc2c(C(=Nc3ccc(N(C)C(=O)CN4CCN(C)CC4)cc3)c3ccccc3)c(O)[nH]c2c1 + CC1OCC2(CCN(c3cnc(Sc4ccnc(N)c4Cl)c(N)n3)CC2)C1N | < 5.00 | < 5.00 | < 5.00 | < 5.00 | 5.63 | 95.4 | 100 | 96 | 95 | 90.4 | 88.6 | 88.3 | 84.5 | 79.5 | 75.6 | 76.1 | 64.9 | 67.5 | 63.5 | 70 | viability, T/C [10]: 81.8%; viability, T/C [11]: 82%; viability, T/C [12]: 78.5%; viability, T/C [15]: 75.6%; viability, T/C [16]: 68.1%; viability, T/C [17]: 69.2%; viability, T/C [18]: 81.6%; viability, T/C [21]: 66%; viability, T/C [22]: 65.1%; viability, T/C [23]: 55.1%; viability, T/C [24]: 63%; viability, T/C [27]: 57.9%; viability, T/C [28]: 60.7%; viability, T/C [29]: 41.4%; viability, T/C [30]: 41.6%
CN(C)C/C=C/C(=O)Nc1cc2c(Nc3ccc(F)c(Cl)c3)ncnc2cc1O[C@H]1CCOC1 + COc1cc2nc(C)nc(NC(C)c3cc(N)cc(C(F)(F)F)c3)c2cc1OC1CCOC1 | < 7.00 | < 7.00 | < 7.00 | < 7.00 | < 7.00 | 96.5 | 75.3 |  |  |  |  | 88 | 74.7 |  | 85.9 | 81.7 | 84.6 | 63.5 | 65.9 | 59.5 | viability, T/C [31]: 104%; viability, T/C [32]: 110%; viability, T/C [33]: 108%; viability, T/C [34]: 102%; viability, T/C [35]: 102%; viability, T/C [36]: 102%; viability, T/C [37]: 91.9%; viability, T/C [38]: 87.9%; viability, T/C [39]: 99.5%; viability, T/C [40]: 101%; viability, T/C [41]: 92.7%; viability, T/C [42]: 81.8%; viability, T/C [43]: 91%; viability, T/C [44]: 85.3%; viability, T/C [45]: 89.7%; viability, T/C [46]: 78.7%; viability, T/C [47]: 78.2%; viability, T/C [48]: 78.9%; viability, T/C [49]: 81.6%; viability, T/C [50]: 82.9%
Cn1ncnc1[C@H]1c2n[nH]c(=O)c3cc(F)cc(c23)N[C@@H]1c1ccc(F)cc1 + C=CC(=O)N1CCN(c2nc(=O)n(-c3c(C)ccnc3C(C)C)c3nc(-c4c(O)cccc4F)c(F)cc23)C(C)C1 | < 7.00 | < 7.00 | < 7.00 | < 7.00 | < 7.00 | 106 | 98.8 |  |  |  |  | 88.5 | 92.4 |  | 97.7 | 86.5 | 96.3 | 90.4 | 87.4 | 96.8 | viability, T/C [31]: 101%; viability, T/C [32]: 99.8%; viability, T/C [33]: 99.2%; viability, T/C [34]: 99.3%; viability, T/C [35]: 97.5%; viability, T/C [36]: 97.9%; viability, T/C [37]: 96%; viability, T/C [38]: 94.5%; viability, T/C [39]: 90%; viability, T/C [40]: 93.9%; viability, T/C [41]: 98%; viability, T/C [42]: 94.7%; viability, T/C [43]: 97%; viability, T/C [44]: 103%; viability, T/C [45]: 94%; viability, T/C [46]: 94.3%; viability, T/C [47]: 108%; viability, T/C [48]: 99.4%; viability, T/C [49]: 102%; viability, T/C [50]: 91.7%
O=C(c1cc(Cc2n[nH]c(=O)c3ccccc23)ccc1F)N1CCN(C(=O)C2CC2)CC1 + CNCc1ccccc1-c1csc(C(C)Nc2nc(C)nc3cc(OC)c(OC)cc23)c1 | < 5.00 | < 5.00 | < 5.00 | < 5.00 | > 7.50 | 101 | 109 | 104 | 108 | 113 | 105 | 107 | 108 | 107 | 116 | 109 | 79.6 | 97.1 | 0.19 | 0.29 | viability, T/C [10]: 109%; viability, T/C [11]: 104%; viability, T/C [12]: 105%; viability, T/C [15]: 103%; viability, T/C [16]: 110%; viability, T/C [17]: 105%; viability, T/C [18]: 103%; viability, T/C [21]: 82.4%; viability, T/C [22]: 59.3%; viability, T/C [23]: 82.3%; viability, T/C [24]: 71.6%; viability, T/C [27]: 0.18%; viability, T/C [28]: 0.17%; viability, T/C [29]: 0.17%; viability, T/C [30]: 0.22%
